Assay results taken from PMC12024234, “Antioxidant, Anti-Inflammatory, and Oral Bioavailability of Novel Sulfonamide Derivatives of Gallic Acid” (Antioxidants, 2025).
Entries after “also recorded” stand apart in the source; their conditions may differ. Values belong to the molecule of their own block, whether it stands above or below them.

How the values were obtained:
CYP2D6 [1] = target: T1, CYP2D6 (Homo sapiens, UniProt P10635); assay: Metabolism by cytochrome P450 2D6 (CypExpress), HPLC; format: in vitro ADME; conditions: 4 h
T1 construct: purchased Sigma Aldrich C4982
T1 sequence (P10635 whole entry): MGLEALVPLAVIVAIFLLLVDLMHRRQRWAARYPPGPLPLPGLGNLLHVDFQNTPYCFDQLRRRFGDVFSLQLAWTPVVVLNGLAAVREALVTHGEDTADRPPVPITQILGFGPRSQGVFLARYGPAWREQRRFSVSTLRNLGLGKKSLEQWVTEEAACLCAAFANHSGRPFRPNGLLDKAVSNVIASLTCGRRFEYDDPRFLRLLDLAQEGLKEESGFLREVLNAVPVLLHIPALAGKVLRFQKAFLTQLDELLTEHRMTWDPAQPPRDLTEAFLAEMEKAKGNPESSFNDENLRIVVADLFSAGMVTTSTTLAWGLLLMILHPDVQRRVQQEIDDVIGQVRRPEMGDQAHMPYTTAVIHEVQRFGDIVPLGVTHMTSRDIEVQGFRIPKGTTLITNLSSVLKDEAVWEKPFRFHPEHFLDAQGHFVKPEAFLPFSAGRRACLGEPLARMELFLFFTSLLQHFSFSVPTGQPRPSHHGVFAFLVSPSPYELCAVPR
Method: The enzymatic activity of cytochrome P450 2D6 (CYP2D6) was evaluated following the CypExpress protocol (C4982, Sigma Aldrich, Darmstadt, Germany). The reaction buffer consisted of 5 mM glucose-6-phosphate (G6P), 2 mM nicotinamide adenine dinucleotide phosphate (NADP+), and 3,4,5-TMBS prepared in PBS at concentrations of 1000 and 1500 µM. Diltiazem was used as a positive control. The reaction was initiated by adding CYP2D6, and the mixture was vortexed for 5 min. The samples were then incubated at 37 °C with gentle shaking at 100 rpm for 4 h. The reaction was terminated by adding acetonitrile, followed by centrifugation at 800 rpm for 10 min. The supernatant was collected and analyzed using HPLC.

CYP2D6 [2] = target: T1, CYP2D6; assay: as above; format: in vitro ADME
HIEC-6 cells = assay: Cell viability CCK-8 assay in HIEC-6; format: cell-based, Human; conditions: 24 h incubation
Method: Human intestinal epithelial cells (HIEC-6), originally obtained from the American Type Culture Collection (ATCC), were cultured in Opti-MEM™ I Reduced Serum Medium (Cat. No. 31985) supplemented with 20 mM HEPES, 10 mM L-glutamine, 10 ng/mL epidermal growth factor, and 4% fetal bovine serum (FBS) (New York, NY, USA). Cells were maintained in a humidified 5% CO2 incubator at 37 °C. Cell viability was assessed using the CCK-8 assay, a colorimetric method based on the reduction of water-soluble tetrazolium salts (WST-8) to a water-soluble formazan dye, with the resulting color intensity proportional to the number of viable cells. Briefly, cells were harvested at approximately 80% confluence, detached using trypsin-EDTA, and centrifuged at 1000 rpm for 5 min. The cell pellet was resuspended in fresh medium, and the density was adjusted to 1 × 10^6 cells/mL. A volume of 100 µL (1 × 10^5 cells/well) was seeded into a 96-well plate, with one well containing the medium only as background control. […] Subsequently, 10 µL of CCK-8 reagent was added to each well, and the plate was incubated for 4 h. Absorbance was measured at 450 nm using a microplate reader, results are expressed as the mean ± standard deviation (SD).

[3] = Oral bioavailability / pharmacokinetics in rats; format: in vivo, Sprague Dawley rats; conditions: rat serum; for Tmax: rat, serum, po
Method: Male Sprague Dawley rats, aged 7–9 weeks and weighing 220 ± 20 g on average, were used for bioavailability studies. The animals were housed in the Laboratory Animal Research Unit at the University of Petra Pharmaceutical Center under controlled conditions: a temperature of 23 ± 2 °C, humidity of 55–65%, and a 12 h light/dark cycle. Prior to the experiments, the rats underwent a 10-day acclimatization period with free access to standard food and water. All procedures complied with the University of Petra’s animal use guidelines, which adhere to the standards of the Federation of European Laboratory Animal Sciences Association (FELASA). The rats were divided into three groups (n = 6 per group) and administered suspensions of GA, 3,4,5-TMBS, or 3,4,5-THBS prepared in 5% carboxymethylcellulose. Each compound was administered orally at a dose of 100 mg/kg, based on previous studies. Blood samples were collected from the retro-orbital plexus at 0.5, 1, 2, 3, 4, 6, 10, and 24 h post-administration. The samples were centrifuged at 5000 rpm for 10 min, and the serum was mixed with acetonitrile in a 1:3 ratio. After a second centrifugation at 5000 rpm for 15 min, the supernatant was collected for high-performance liquid chromatography (HPLC) analysis. HPLC analysis was conducted using a Shimadzu Class VP series system equipped with an LC-10AT VP pump, an SIL-10AD VP autosampler, and an SCL-10AVP system (Shimadzu, Kyoto, Japan). A C18 column (25 cm × 4.6 mm, 5 μm) was used, with a photodiode array detector set to a wavelength range of 200–400 nm. The mobile phase for TMBS and THBS consisted of a 50:50 (v/v) mixture of deionized water and acetonitrile containing 0.1% trifluoroacetic acid, flowing at 1 mL/min. For GA, the mobile phase was a 70:30 mixture of methanol and a water/sulfuric acid solution (100:2), also at a flow rate of 1 mL/min. The retention times for THBS and TMBS were 2.39 and 3.47 min, respectively, while GA eluted at 2.4 min, all detected at 254 nm. Results were analyzed using Lab Solution Software LC (version 5.3) and represent the average of three measurements.

[4] = DPPH radical scavenging assay
Method: The antioxidant properties of the compounds under study were examined using the 2,2-Diphenyl-1-picrylhydrazyl (DPPH) assay, following a well-established protocol. A DPPH solution was prepared at a concentration of 0.1 mM in methanol. […] To ensure proper reaction, the mixtures were kept in the dark and incubated at room temperature for 30 min. After incubation, the absorbance of each sample was measured at 517 nm using a UV-VIS spectrophotometer. Gallic acid was used as the reference standard, and methanol served as the blank control.
The ability of the compounds to scavenge free radicals was determined by observing the reduction of DPPH at 517 nm, with lower absorbance values indicating higher antioxidant activity. The half-maximal inhibitory concentration (IC50), defined as the concentration of the compound needed to neutralize 50% of the DPPH radicals, was calculated from the dose–response curve. All experiments were performed in triplicate, and the results are reported as the mean of three independent trials. This method is widely recognized for its reliability and reproducibility in evaluating the antioxidant potential of chemical compounds.

COX-2 = target: T2, COX-2 (Homo sapiens, UniProt P35354); assay: Cyclooxygenase (COX-2) activity assay in HIEC-6 cell lysate; format: biochemical
T2 construct: endogenous in cells; host or cells: HIEC-6 cell lysate
T2 sequence (P35354 18-604): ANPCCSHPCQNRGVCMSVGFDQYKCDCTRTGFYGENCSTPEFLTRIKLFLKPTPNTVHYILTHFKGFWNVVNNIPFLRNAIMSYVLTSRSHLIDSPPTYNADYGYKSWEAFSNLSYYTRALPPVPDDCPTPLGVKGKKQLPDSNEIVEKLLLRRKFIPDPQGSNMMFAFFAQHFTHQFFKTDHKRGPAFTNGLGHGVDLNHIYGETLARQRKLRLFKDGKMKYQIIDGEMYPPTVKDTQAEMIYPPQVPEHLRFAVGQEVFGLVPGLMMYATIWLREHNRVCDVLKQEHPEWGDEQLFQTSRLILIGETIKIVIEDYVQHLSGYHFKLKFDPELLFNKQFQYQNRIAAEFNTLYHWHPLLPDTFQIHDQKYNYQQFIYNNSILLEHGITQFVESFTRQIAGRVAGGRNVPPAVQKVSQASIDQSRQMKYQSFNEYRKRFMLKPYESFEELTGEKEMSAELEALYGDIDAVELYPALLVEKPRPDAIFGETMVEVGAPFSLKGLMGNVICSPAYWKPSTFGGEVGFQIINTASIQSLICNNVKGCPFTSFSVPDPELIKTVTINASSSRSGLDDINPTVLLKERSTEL
Method: Cyclooxygenase (COX-2) activity assay was performed in HIEC-6 cells according to the manufacturer’s instructions (ab204699). Resorufin standards (0–20 pmol/well) were used to generate a calibration curve for quantifying sample concentrations. HIEC-6 cells were centrifuged at 500× g for 3 min and washed with PBS. The cell pellet was lysed in an ice-cold lysis buffer containing 10% Triton X-100 and a protease inhibitor cocktail in PBS for 5 min. The lysate was then centrifuged at 12,000× g for 3 min at 4 °C, and the supernatant was collected and kept on ice. Protein concentration in the supernatant was determined using a Bradford assay, with a bovine serum albumin standard curve (0–2000 µg/mL). […] This mixture was added to a 96-well plate, and the reaction was initiated by adding arachidonic acid (COX-2 substrate) dissolved in NaOH solution. The enzymatic reaction produced fluorescent resorufin dye, which was measured at excitation/emission wavelengths of λEx/Em = 535/587 nm.

[5] = male, Sprague Dawley, 100 mg/kg, n = 6

- Metabolism by CYP2D6 (concentration) (CYP2D6 [1]; 1000 µM): 849.91 ± 0.62 µM
- Metabolism by CYP2D6 (concentration) (CYP2D6 [1]; 1500 µM): 1235 ± 6.02 µM
- Metabolism by CYP2D6 (concentration) (CYP2D6 [2]; 1000 µM, 1 h): 828 ± 21.7 µM
- Metabolism by CYP2D6 (concentration) (CYP2D6 [2]; 1000 µM, 3 h): 829 ± 78.1 µM
- Metabolism by CYP2D6 (concentration) (CYP2D6 [2]; 1500 µM, 1 h): 1287 ± 12.8 µM
- Metabolism by CYP2D6 (concentration) (CYP2D6 [2]; 1500 µM, 3 h): 1460 ± 133 µM
SMILES: COc1ccc([C@@H]2Sc3ccccc3N(CCN(C)C)C(=O)[C@@H]2OC(C)=O)cc1 [Diltiazem, reference compound]

SMILES: O=C(O)c1cc(O)c(O)c(O)c1 [GA, 3,4,5-trihydroxybenzoic acid, reference compound]
- IC50 (HIEC-6 cells): 47.6 ± 2.39 µM
- IC50 (HIEC-6 cells; Homo sapiens, HIEC-6, 24 h): ~47 µM
- Cmax ([3]; male, Sprague Dawley, 100 mg/kg (table: 100 mg dose), n = 6): 2140 ± 880 ng/mL
- AUC(0-inf) [3, 5]: 13000 ± 5620 ng·h/mL
- AUC(0-t) [3, 5]: 9320 ± 4610 ng·h/mL
- CL/F [3, 5]: 148 mL/min/kg
- half-life [3, 5]: 3.6 ± 0.94 h
- MRT inf ([3]; male, Sprague Dawley, 100 mg/kg, n = 6, read-out: MRT0–∞): 7.66 ± 2.99 h
- Tmax ([3]; male, Sprague Dawley, 100 mg/kg): 1.3 h
- Tmax [3, 5]: 1.3 ± 0.22 h
- Vz ([3]; 100 mg/kg, n = 6): 55.46 ± 23.99 (mg)/(μg/mL)
- EC50 [4]: ~30 µM
- DPPH radical scavenging activity ([4]; at 1000 µM): exceeding 90%
- ROS scavenging activity ([4]; at 1000 µM (abstract)): 96%
- COX-2 inhibition compared to ibuprofen (COX-2; 1 µM): weaker COX-2 inhibition than ibuprofen
- COX-2 inhibition compared to ibuprofen (COX-2; 50 µM): low COX-2 inhibition effect; also recorded: weaker COX-2 inhibition than ibuprofen
